Assay results reported in patent US20120328526A1, “Modulation of Nad+ Activity in Neuropathophysiological Conditions and Uses Thereof” (University of Maryland, Baltimore, priority 2011, published 2012).
Entries after “also recorded” stand apart in the source; their conditions may differ.

Experiments:
[1] = test system: neurons in the CA1 sector of the hippocampus; experiment: Forebrain ischemia model, histological outcome in the CA1 sector of the hippocampus; type: in vivo, mouse
Description: FIGS. 1A-1B show effects of nicotinamide mononucleotide administration. FIG. 1A: Fluoro-Jade B staining of the hippocampal formation of mouse brain subjected to 10 min forebrain ischemia and 5 days of recovery. The middle panels represent enlarged views of the CA1 sector, the CA2-3 border, and DG. Note the high number of degenerating, Fluoro-Jade B positive cells in the CA1 pyramidal cell layer. There are only a few cells stained in the CA3 region, and some cells are stained in the DG. […] Open bars represent average values.
In all groups male, 3 months old animals were used.
C57BL/6 male mice, weighing 20-25 g were used. Mice were fasted overnight with free access to water ad libitum. Animals were anesthetized with 3.5% isoflurane in 70% N2O and 30% O2 and the trachea were intubated with a 20-guage intravenous catheter. Anesthesia was maintained using 1.5% isoflurane in N2O:O2 (70:30) and the lungs were mechanically ventilated at a rate of 120 breaths per min and the tidal volume was adjusted to give normal physiological values of blood gases (34-38 mm Hg pCO2 and […] of pO2). The common carotid arteries was isolated via a neck incision and encircled with loose ligatures for later clamping. Rectal temperature was routinely monitored before, during and after ischemia. A subcutaneous needle thermistor was placed adjacent to the skull. The body and head temperature was maintained at 37.0±0.5° C. by a homeothermic-heating pad and heating lamp.
Two minutes before the common carotid arteries are clamped, the isoflurane concentration will be increased to 5%. […]
Every sixth […] section located between 1.7 and 2.6 mm posterior to bregma (0 mm, 180 mm, 360 mm, 540 mm, 720 mm, 900 mm; 6 sections), which comprises the dorsal hippocampus, was stained with IBA1 antiserum and cresyl violet and used for estimating the total microglial number with distinct morphology and neuronal numbers of normal and dying neurons in the different hippocampal regions. […] Parallel sections were immuno-stained with GFAP antibody and the number of distinct astrocytes were counted in the same hippocampal area. GFAP-immunoreactive cells were classified into three categories: normal, moderate, and intensely activated astrocytes, based on morphological characteristics as assessed by visual inspection (23).
Quantitative analysis is performed on a computer-assisted image analysis system consisting of a Nikon Eclipse 800 photomicroscope equipped with a computer-controlled motorized stage, and a computer running Stereolnvestigator program, a custom-designed morphology and stereology software (27). Cell numbers were quantified according to the optical fractionator method. […]
For quantification of uninjured cells within the CA1 sector of the hippocampus an unbiased stereological technique was used (27). […]

[2] = target: T1, CD38 NAD^+ glycohydrolase (Mus musculus, UniProt P56528); experiment: NAD+ glycohydrolase activity (1-etheno-NAD hydrolysis) in brain region homogenates; type: biochemical; conditions: NMN 1 mM; post-ischemic brain subregion supernatant
T1 construct: The individual brain regions were homogenized and centrifuged at low speed to sediment the unbroken cells and the nuclear fraction; from tissue; host or cells: mouse (C57BL/6) brain regions (cortex, striatum, hippocampal CA1, CA3-DG), low-speed supernatant of homogenate
T1 sequence (P56528 1-304): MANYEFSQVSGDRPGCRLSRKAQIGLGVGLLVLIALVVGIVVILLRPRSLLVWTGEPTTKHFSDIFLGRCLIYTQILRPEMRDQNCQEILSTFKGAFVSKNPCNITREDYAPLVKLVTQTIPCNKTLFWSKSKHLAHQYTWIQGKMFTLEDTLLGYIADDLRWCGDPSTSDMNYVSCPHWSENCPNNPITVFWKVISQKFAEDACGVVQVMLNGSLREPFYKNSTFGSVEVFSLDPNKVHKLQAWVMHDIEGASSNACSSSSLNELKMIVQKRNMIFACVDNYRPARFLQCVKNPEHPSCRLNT
Description: FIGS. 3A-3B show the effect of forebrain ischemia and nicotinamide mononucleotide administration on tissue NAD(H) levels. Mice were subjected to 10 min transient forebrain ischemia and allowed to recover for 24 h. After decapitation their brains were removed, the designated regions dissected and frozen in liquid nitrogen. One group of animals received nicotinamide mononucleotide at 1 hour of recovery. The NAD content was determined following perchloric acid extraction and utilized a coupled fluorometric cycling enzymatic assay (FIG. 3A). There is significant loss of NAD^+ in striatum, CA1, and DG regions. *p<0.05. […] Black: sham; white: ischemia; gray: NMN treatment. FIG. 3B: Effect of ischemia on CD38 activity. Brains of sham operated animals or animals subjected to 10 min of forebrain ischemia and 24 h of recovery were used for dissection of designated brain regions and homogenized. The CD38 enzyme activity was determined using 1-etheno-NAD that, when hydrolyzed by CD38, generates a fluorescent product. The rate of fluorescence increase corresponds to the CD38 enzyme activity. […]
Since nicotinamide mononucleotide is inhibiting the CD38 NAD^+ glycohydrolase activity, the activity of CD38 in post-ischemic tissue was assessed. The NAD^+ glycohydrolase activity was measured by monitoring the enhancement in fluorescence emission caused by the hydrolysis of 1-etheno-NAD (eNAD) (9). […]

In the case of NC(=O)c1ccc[n+]([C@@H]2O[C@H](COP(=O)([O-])O)[C@@H](O)[C@H]2O)c1 [nicotinamide mononucleotide], the “ischemic cell death / brain damage in the CA1 sector of the hippocampus” value ([1]; 10 min forebrain ischemia, NMN 500 mg/kg at 1 hour of reperfusion, 5 days of recovery) is reported as “almost completely ameliorated; also recorded: markedly ameliorates ischemic brain damage; also recorded: almost completely eliminate the ischemic brain damage; also recorded: dramatic amelioration of cell death; also recorded: significant protection”, the “ischemic cell death / brain damage in the CA1 sector of the hippocampus” value ([1]; 10 min forebrain ischemia, NMN 500 mg/kg at 1 hour of reperfusion, 5 days of recovery, listed as NMN) is reported as “Dramatic reduction of ischemia-induced brain damage” and the “animals that did not show any injured neurons” value ([1]; 10 min forebrain ischemia, NMN 500 mg/kg at 1 hour of reperfusion, 5 days of recovery, n=6) is reported as “Five of 6”. For the same molecule, the “percentage of uninjured neurons in the CA1 sector vs vehicle-treated wild type mice” value ([1]; 10 min global cerebral ischemia, NMN 1000 mg/kg IP at start of reperfusion, 6 days of recovery) was “significantly greater” and the “eNAD hydrolysis (NAD+ glycohydrolase activity) in brain tissue homogenate” value [2] was “completely inhibited; also recorded: prevents tissue NAD^+ degradation”.
